Laboratory results as given in the supplement of paper PMC6045584.
± gives the standard deviation of the averaged measurements.

How the values were obtained:
DASATINIB = compound: Cc1nc(Nc2ncc(C(=O)Nc3c(C)cccc3Cl)s2)cc(N2CCN(CCO)CC2)n1 [DASATINIB]; test: surviving fraction relative to DMSO-only wells; higher = less growth inhibition; details: exposure time: 5 days
Method in brief: (§1)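 Log-phase tumour cell lines, 250–500 cells per well in 384-well plates, received inhibitors at 0.5, 1, 5, 10, 50, 100, 500 and 1000 nM continuously for five days, starting 24 hours after seeding. Viability was quantified with CellTiter-Glo luminescence and normalised to the median of DMSO-only wells to give surviving fraction. Three screens were run per line, and a line stayed in only with replicate Pearson r >0.7 and median Z' >0.3.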

SOTRASTAURIN/AEB071 [1] = compound: T1, CN1CCN(c2nc(C3=C(c4c[nH]c5ccccc45)C(=O)NC3=O)c3ccccc3n2)CC1 [SOTRASTAURIN/AEB071]; test: as above; details: exposure time: 5 days
Method in brief: as §1

SOTRASTAURIN/AEB071 [2] = compound: T1, SOTRASTAURIN/AEB071; test: area under dose-response curve of surviving fraction (unscaled, Aref=0) (surviving fraction x log10(nM)); higher = more resistant; details: exposure time: 5 days; dose range 0.5-1000 nM
Method in brief: (§2)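 Each tumour cell line was screened three times in 384-well plates, receiving eight inhibitor concentrations from 0.5 to 1000 nM for five days. CellTiter-Glo luminescence gave viability, normalised to DMSO-only wells. Using the drc R package, surviving fractions were fitted with 3-parameter logistic dose-response curves, and the unscaled activity area over log10 dose (Aref = 0) was taken as the area under the curve.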

[3] = compound: CNCc1ccc(-c2[nH]c3cc(F)cc4c3c2CCNC4=O)cc1; test: as above; details: exposure time: 5 days; dose range 0.5-1000 nM
Method in brief: as §2

[4] = compound: CCn1c(C(=O)N(C2CC2)C2CC2)cc2c3c(ncn3C)c(Nc3cc(C)n(C)n3)nc21; test: as above; details: exposure time: 5 days; dose range 0.5-1000 nM
Method in brief: as §2

ABIRATERONE = compound: C[C@]12CC[C@H](O)CC1=CC[C@@H]1[C@@H]2CC[C@]2(C)C(c3cccnc3)=CC[C@@H]12 [ABIRATERONE]; test: as above; details: exposure time: 5 days; dose range 0.5-1000 nM
Method in brief: as §2

Row | Test System | surviving fraction (DASATINIB; 0.5 nM) | surviving fraction (DASATINIB; 1 nM) | surviving fraction (DASATINIB; 5 nM) | surviving fraction (DASATINIB; 10 nM) | surviving fraction (DASATINIB; 50 nM) | surviving fraction (DASATINIB; 100 nM) | surviving fraction (DASATINIB; 500 nM) | surviving fraction (DASATINIB; 1000 nM) | surviving fraction (SOTRASTAURIN/AEB071 [1]; 0.5 nM) | surviving fraction (SOTRASTAURIN/AEB071 [1]; 1 nM) | surviving fraction (SOTRASTAURIN/AEB071 [1]; 5 nM) | surviving fraction (SOTRASTAURIN/AEB071 [1]; 10 nM) | surviving fraction (SOTRASTAURIN/AEB071 [1]; 50 nM) | surviving fraction (SOTRASTAURIN/AEB071 [1]; 100 nM) | surviving fraction (SOTRASTAURIN/AEB071 [1]; 500 nM) | surviving fraction (SOTRASTAURIN/AEB071 [1]; 1000 nM) | area under dose-response curve (SOTRASTAURIN/AEB071 [2]) | area under dose-response curve [3] | area under dose-response curve [4] | area under dose-response curve (ABIRATERONE)
1 | MG63 BONE | 0.899 ± 0.035 | 0.901 ± 0.013 | 0.785 ± 0.015 | 0.691 ± 0.0046 | 0.469 ± 0.0076 | 0.357 ± 0.012 | 0.204 ± 0.0021 | 0.194 ± 0.0071 | 1.02 ± 0.053 | 1.05 ± 0.047 | 1.06 ± 0.049 | 1.09 ± 0.027 | 1.07 ± 0.04 | 1.03 ± 0.065 | 1.02 ± 0.042 | 0.937 ± 0.029 | 3.44 | 3.36 | 3.25 | 
2 | NY BONE | 0.9257 ± 0.0085 | 0.881 ± 0.011 | 0.828 ± 0.015 | 0.753 ± 0.018 | 0.471 ± 0.018 | 0.366 ± 0.031 | 0.288 ± 0.012 | 0.263 ± 0.027 | 0.99 ± 0.041 | 0.971 ± 0.023 | 1.08 ± 0.002 | 1.03 ± 0.048 | 1.11 ± 0.022 | 1.09 ± 0.043 | 1.07 ± 0.051 | 1.106 ± 0.0067 | 3.48 |  | 3.17 | 3.56
3 | OS25HAL BONE | 0.88 ± 0.03 | 0.849 ± 0.013 | 0.849 ± 0.035 | 0.747 ± 0.035 | 0.686 ± 0.05 | 0.599 ± 0.074 | 0.45 ± 0.073 | 0.363 ± 0.045 | 1.02 ± 0.057 | 1.006 ± 0.0082 | 1.03 ± 0.039 | 1.03 ± 0.014 | 1.09 ± 0.018 | 1.04 ± 0.042 | 1.09 ± 0.025 | 1.03 ± 0.038 | 3.43 |  | 3.23 | 3.44
4 | SG27 HEADNECK | 0.939 ± 0.12 | 1.01 ± 0.035 | 0.889 ± 0.15 | 0.736 ± 0.013 | 0.531 ± 0.0053 | 0.42 ± 0.038 | 0.35 ± 0.059 | 0.369 ± 0.064 | 1.1 ± 0.093 | 1.11 ± 0.04 | 0.984 ± 0.051 | 0.984 ± 0.1 | 1.13 ± 0.13 | 1.1 ± 0.041 | 1.15 ± 0.058 | 1.26 ± 0.1 | 3.57 |  | 3.25 | 3.22
5 | SG28 HEADNECK | 0.749 ± 0.055 | 0.772 ± 0.04 | 0.687 ± 0.028 | 0.534 ± 0.087 | 0.439 ± 0.033 | 0.329 ± 0.018 | 0.213 ± 0.016 | 0.204 ± 0.032 | 1.116 ± 0.011 | 1.107 ± 0.0035 | 0.956 ± 0.12 | 1.024 ± 0.0085 | 0.821 ± 0.039 | 0.79 ± 0.14 | 0.8065 ± 0.0078 | 0.843 ± 0.088 |  |  | 3.25 | 3.46
6 | SG31 HEADNECK | 0.892 ± 0.091 | 0.878 ± 0.19 | 0.722 ± 0.013 | 0.649 ± 0.081 | 0.535 ± 0.02 | 0.44 ± 0.042 | 0.391 ± 0.045 | 0.373 ± 0.016 | 1.28 ± 0.26 | 1 ± 0.12 | 1.25 ± 0.26 | 1.12 ± 0.23 | 0.935 ± 0.12 | 1.03 ± 0.12 | 1.11 ± 0.12 | 1.14 ± 0.032 |  | 3.16 |  | 3.4
7 | SG32 HEADNECK | 0.606 ± 0.048 | 0.653 ± 0.14 | 0.564 ± 0.11 | 0.438 ± 0.06 | 0.395 ± 0.09 | 0.171 ± 0.037 | 0.155 ± 0.015 | 0.147 ± 0.022 | 0.943 ± 0.088 | 1.13 ± 0.18 | 1.09 ± 0.22 | 1.05 ± 0.057 | 0.792 ± 0.084 | 0.698 ± 0.27 | 0.827 ± 0.13 | 0.795 ± 0.08 |  | 2.77 | 3.55 | 
8 | SIHA CERVIX | 0.876 ± 0.016 | 0.806 ± 0.013 | 0.74 ± 0.026 | 0.742 ± 0.019 | 0.772 ± 0.046 | 0.648 ± 0.052 | 0.561 ± 0.0062 | 0.543 ± 0.027 | 0.988 ± 0.039 | 1 ± 0.12 | 1.12 ± 0.041 | 1.06 ± 0.1 | 0.935 ± 0.055 | 0.989 ± 0.0056 | 0.944 ± 0.048 | 0.849 ± 0.05 |  | 3.29 | 3.23 | 3.9
9 | SJSA1 BONE | 1.23 ± 0.065 | 1.14 ± 0.044 | 1.16 ± 0.19 | 1.24 ± 0.1 | 0.0427 ± 0.0032 | 1.6 ± 0.093 | 1.7 ± 0.029 | 0.174 ± 0.019 | 1.72 ± 0.087 | 1.64 ± 0.046 | 1.64 ± 0.092 | 1.56 ± 0.13 | 0.992 ± 0.068 | 1.13 ± 0.029 | 1.7 ± 0.041 | 0.205 ± 0.018 |  | 5.61 | 3.42 | 3.63
10 | SUM44 BREAST | 0.88 ± 0.035 | 0.824 ± 0.085 | 0.941 ± 0.062 | 0.865 ± 0.13 | 1.14 ± 0.23 | 1.12 ± 0.15 | 1.09 ± 0.13 | 0.99 ± 0.055 | 1.03 ± 0.23 | 1.04 ± 0.21 | 1.13 ± 0.2 | 1.03 ± 0.19 | 0.895 ± 0.057 | 0.962 ± 0.054 | 1.02 ± 0.1 | 1.03 ± 0.092 |  | 3.09 | 3.39 | 3.4
11 | SUM149.B1*.S BREAST | 0.905 ± 0.034 | 0.879 ± 0.036 | 0.811 ± 0.024 | 0.75 ± 0.047 | 0.5 ± 0.018 | 0.358 ± 0.0082 | 0.332 ± 0.0043 | 0.353 ± 0.032 | 1.11 ± 0.028 | 1.08 ± 0.06 | 1.06 ± 0.093 | 1.07 ± 0.061 | 1.11 ± 0.059 | 1.04 ± 0.024 | 1.04 ± 0.1 | 1.03 ± 0.042 | 3.26 |  | 3.62 | 3.93
12 | VP229 BREAST | 0.813 ± 0.044 | 0.855 ± 0.081 | 0.708 ± 0.031 | 0.619 ± 0.027 | 0.467 ± 0.032 | 0.484 ± 0.0085 | 0.45 ± 0.031 | 0.484 ± 0.018 | 1.07 ± 0.054 | 1.23 ± 0.1 | 0.995 ± 0.023 | 1.04 ± 0.13 | 0.952 ± 0.084 | 0.812 ± 0.059 | 0.956 ± 0.13 | 0.856 ± 0.19 |  | 3.13 | 3.59 | 3.53
13 | YAMATO SYNOVIAL | 0.822 ± 0.18 | 0.729 ± 0.097 | 0.836 ± 0.19 | 0.771 ± 0.2 | 0.848 ± 0.13 | 0.753 ± 0.11 | 0.63 ± 0.039 | 0.677 ± 0.074 | 1.14 ± 0.068 | 1.23 ± 0.018 | 1.28 ± 0.13 | 1.38 ± 0.11 | 0.962 ± 0.096 | 0.968 ± 0.032 | 0.945 ± 0.024 | 0.96 ± 0.059 | 3.66 |  | 4.14 | 4.72
14 | ZR751 BREAST | 0.934 ± 0.066 | 0.965 ± 0.23 | 0.851 ± 0.098 | 0.835 ± 0.045 | 0.877 ± 0.12 | 0.852 ± 0.18 | 1 ± 0.14 | 0.922 ± 0.17 | 1.19 ± 0.11 | 1.3 ± 0.22 | 1.1 ± 0.15 | 1.16 ± 0.15 | 1.07 ± 0.092 | 1.1 ± 0.039 | 0.983 ± 0.15 | 1 ± 0.12 | 3.67 | 3.07 | 2.89 | 
